Data set [1] concerns humans. The conditions noted are these: ref Brauer and de Wit, 1996, Kelly et al., 2006, Harvanko et al., 2016; cited from earlier work.
A further data set concerns the target T1, 5-HT1A (Homo sapiens, UniProt P08908).
T1 sequence (P08908 1-422): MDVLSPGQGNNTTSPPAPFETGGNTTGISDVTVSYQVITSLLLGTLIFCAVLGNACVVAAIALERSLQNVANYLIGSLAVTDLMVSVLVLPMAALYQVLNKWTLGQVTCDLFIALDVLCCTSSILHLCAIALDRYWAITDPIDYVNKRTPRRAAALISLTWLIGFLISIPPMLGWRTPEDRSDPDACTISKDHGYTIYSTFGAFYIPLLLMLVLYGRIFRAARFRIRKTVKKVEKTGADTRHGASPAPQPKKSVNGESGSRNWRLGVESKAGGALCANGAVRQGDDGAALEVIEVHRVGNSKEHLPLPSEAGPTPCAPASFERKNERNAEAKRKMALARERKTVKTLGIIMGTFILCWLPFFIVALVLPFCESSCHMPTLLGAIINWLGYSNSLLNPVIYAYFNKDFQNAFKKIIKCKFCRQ
The conditions noted are these: ref Schindler et al., 2019; cited from earlier work.

The test system of the next data set is male Sprague-Dawley rats. The data set is described as follows: In vivo biotelemetry. The conditions noted are these: s.c., amphetamine 0.1–3 mg/kg, PEA analogs 1–10 mg/kg.
A further data set concerns the target 5-HT2B (Homo sapiens, UniProt P41595). The note with it: ref Schindler et al., 2019; cited from earlier work.
A further data set deals with T2, α2A (Homo sapiens, UniProt P08913).
T2 sequence (P08913 1-465): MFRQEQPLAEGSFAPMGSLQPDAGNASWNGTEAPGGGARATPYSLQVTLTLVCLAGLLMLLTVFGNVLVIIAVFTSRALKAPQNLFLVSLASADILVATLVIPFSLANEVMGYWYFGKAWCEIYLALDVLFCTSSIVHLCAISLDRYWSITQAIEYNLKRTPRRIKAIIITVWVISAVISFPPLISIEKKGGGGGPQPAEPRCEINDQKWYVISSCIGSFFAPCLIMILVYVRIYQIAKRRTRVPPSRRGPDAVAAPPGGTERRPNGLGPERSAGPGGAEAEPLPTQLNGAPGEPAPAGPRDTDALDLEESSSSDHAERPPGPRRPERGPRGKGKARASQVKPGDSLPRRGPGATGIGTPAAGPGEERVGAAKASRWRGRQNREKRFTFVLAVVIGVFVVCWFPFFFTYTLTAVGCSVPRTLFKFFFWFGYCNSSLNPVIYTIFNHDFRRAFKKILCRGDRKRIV
The note with it: ref Schindler et al., 2019; cited from earlier work.

A further data set deals with T3, α2C (Homo sapiens, UniProt P18825).
T3 sequence (P18825 1-462): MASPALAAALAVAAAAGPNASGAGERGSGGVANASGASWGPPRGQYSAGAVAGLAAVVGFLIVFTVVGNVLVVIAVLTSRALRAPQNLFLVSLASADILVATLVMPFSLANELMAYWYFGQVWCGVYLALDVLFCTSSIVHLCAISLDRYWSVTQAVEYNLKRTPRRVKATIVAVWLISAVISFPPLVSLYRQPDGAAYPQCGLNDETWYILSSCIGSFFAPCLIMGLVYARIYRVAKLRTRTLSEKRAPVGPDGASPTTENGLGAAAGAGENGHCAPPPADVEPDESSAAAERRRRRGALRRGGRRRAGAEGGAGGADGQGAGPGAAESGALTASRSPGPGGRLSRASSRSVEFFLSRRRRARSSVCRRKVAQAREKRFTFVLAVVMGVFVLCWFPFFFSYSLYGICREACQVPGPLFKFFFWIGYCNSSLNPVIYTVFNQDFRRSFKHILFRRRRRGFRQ
The conditions noted are these: ref Schindler et al., 2019; cited from earlier work.

Data set [2] relates to humans. The note with it: ref Chait et al., 1985; cited from earlier work.
The next data set has as its system rats. The conditions noted are these: ref Schindler et al., 2019, cited from earlier work.

Counter-ions that a name gives are not always drawn.

The Ki is the equilibrium dissociation constant of an inhibitor or competing ligand from its target.

Sequence of 5-HT2B (P41595 whole entry): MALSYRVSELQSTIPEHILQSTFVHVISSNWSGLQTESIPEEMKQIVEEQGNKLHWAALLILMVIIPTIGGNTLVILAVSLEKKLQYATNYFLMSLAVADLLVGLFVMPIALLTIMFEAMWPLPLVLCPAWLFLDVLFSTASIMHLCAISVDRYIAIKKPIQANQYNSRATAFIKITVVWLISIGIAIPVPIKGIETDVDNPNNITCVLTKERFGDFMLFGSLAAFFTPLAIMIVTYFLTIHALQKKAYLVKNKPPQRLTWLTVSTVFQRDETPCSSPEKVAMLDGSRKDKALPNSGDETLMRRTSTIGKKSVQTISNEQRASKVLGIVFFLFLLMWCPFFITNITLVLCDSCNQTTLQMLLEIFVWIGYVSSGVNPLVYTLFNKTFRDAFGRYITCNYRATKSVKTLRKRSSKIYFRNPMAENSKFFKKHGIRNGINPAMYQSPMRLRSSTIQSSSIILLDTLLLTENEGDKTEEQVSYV

For the compound `C[C@H](N)Cc1ccccc1` [Amphetamine, (S)-amphetamine sulfate], the “lowest oral doses that increase BP and HR” value in the data set with humans [1] is 7.5 to 10 mg. In addition, the inhibitory constant (Ki) at 5-HT1A was 2630 nM; at 5-HT2B, 971 nM; on α2A it was 420 nM; on α2C, 171 nM. For the same compound, the “effect on core body temperature” value with male Sprague-Dawley rats is “did not significantly affect body temperature”. The “threshold oral dose that can be discriminated” value with humans [2] is given as 5 mg.

On to `CC(CN)c1ccccc1` (stereo not drawn) [BMPEA, β-methylphenethylamine], for which, in the data set on rats (at the doses tested), the “effect on HR or activity” value is listed as “did not increase HR or activity”. Further, the “reduction of potency to increase BP compared with amphetamine” value with rats is reported as “about 30 fold”.

Source of the values: publication PMC7788351 (The Journal of Pharmacology and Experimental Therapeutics, 2021).
